In PMC11762413 (2025):
Values belong to the molecule of their own block, whether it stands above or below them.

Assays:
[1] = system: VAN-specific aptamer (Apt), 4trunc, in solution (DNA, aptamer) CGAGGGTACCGCAATAGTACTTATTGTTCGCCTATTGTGGGTCGG; test: ITC; details: 100 mM Na+, 100 mM K+, 10 mM Mg2+; 10 mM TRIS pH 7.4, 25 °C; 10 µM aptamer titrated with 150 µM VAN; independent sites
[2] = system: VAN-specific aptamer (Apt), 4trunc, immobilised on gold (DNA, aptamer) CGAGGGTACCGCAATAGTACTTATTGTTCGCCTATTGTGGGTCGG; test: SPR kinetics (koff/kon); details: 100 mM Na+, 100 mM K+, 10 mM Mg2+; 10 mM TRIS pH 7.4; aptamer immobilised on gold chip; VAN 0.05–10 µM; 1:1 model
[3] = system: VAN-specific aptamer (Apt), 4trunc, immobilised on gold (DNA, aptamer) CGAGGGTACCGCAATAGTACTTATTGTTCGCCTATTGTGGGTCGG; test: EIS aptasensor selectivity; details: 100 mM Na+, 100 mM K+, 10 mM Mg2+, 10 mM TRIS pH 7.4, room temperature, 45 min, tested at 1 µM

- KD [1]: 13.35 ± 2.74 µM
- KD [2]: 18.31 ± 1.15 µM
Structure (SMILES): CN[C@H](CC(C)C)C(=O)N[C@H]1C(=O)N[C@@H](CC(N)=O)C(=O)N[C@H]2C(=O)N[C@H]3C(=O)N[C@H](C(=O)N[C@H](C(=O)O)c4cc(O)cc(O)c4-c4cc3ccc4O)[C@H](O)c3ccc(c(Cl)c3)Oc3cc2cc(c3O[C@@H]2O[C@H](CO)[C@@H](O)[C@H](O)[C@H]2O[C@H]2C[C@](C)(N)[C@H](O)[C@H](C)O2)Oc2ccc(cc2Cl)[C@H]1O

- binding ([3]; 10.65% of VAN signal): no
Structure (SMILES): OC[C@H]1OC(O)[C@H](O)[C@@H](O)[C@@H]1O (stereo partly shown)

- binding ([3]; 9.78% of VAN signal): no
Structure (SMILES): OC[C@H]1O[C@@H](O[C@H]2[C@H](O)[C@@H](O)C(O)O[C@@H]2CO)[C@H](O)[C@@H](O)[C@H]1O (stereo partly shown)
